According to patent US5217960A, “Erythromycin derivatives” (priority 1991, dated 1993):
Converted amounts (≈) assume the structure as drawn. Like-named read-outs stand apart in the source and are kept apart here.

Experiments:
Assay type in all cases: cell-based
[1] = test system: STAPHYLOCOCCUS AUREUS A5177; assay: In vitro antibacterial activity, agar dilution MIC; settings: S. aureus A5177, BHI agar, 35-37° C., 20 to 24 hours, read-out: MIC
ESCHERICHIA COLI DC-2 = assay: In vitro antibacterial activity, agar dilution MIC; settings: E. coli DC-2, BHI agar, 35-37° C., 20 to 24 hours, read-out: MIC
ESCHERICHIA COLI SS = assay: In vitro antibacterial activity, agar dilution MIC
[2] = test system: STAPHYLOCOCCUS AUREUS 1775; assay: In vitro antibacterial activity, agar dilution MIC; settings: S. aureus 1775, BHI agar, 35-37° C., 20 to 24 hours, read-out: MIC
[3] = test system: ENTEROBACTER AEROGENES ATCC 13048; assay: In vitro antibacterial activity, agar dilution MIC; settings: Klebsiella aerogenes, ATCC13048; E. aerogenes ATCC 13048; BHI agar, 35-37° C., 20 to 24 hours; read-out: MIC
ESCHERICHIA COLI KNK 437 = assay: microbe, parasite or virus in culture; settings: E. coli KNK 437, BHI agar, 35-37° C., 20 to 24 hours
[4] = test system: STAPHYLOCOCCUS EPIDERMIDIS 3519; assay: microbe, parasite or virus in culture; settings: 24 h
[5] = test system: STREPTOCOCCUS PYOGENES 2548 INDUC; assay: In vitro antibacterial activity, agar dilution MIC; settings: 24 h
[6] = test system: ACINETOBACTER CALCOACETICUS CMX 669; assay: In vitro antibacterial activity, agar dilution MIC; settings: A. calcoaceticus CMX 669, BHI agar, 35-37° C., 20 to 24 hours
ESCHERICHIA COLI JUHL = assay: microbe, parasite or virus in culture; settings: E. coli JUHL, BHI agar, 35-37° C., 20 to 24 hours, read-out: MIC
[7] = test system: PSEUDOMONAS AERUGINOSA A5007; assay: In vitro antibacterial activity, agar dilution MIC; settings: P. aeruginosa A5007, BHI agar, 35-37° C., 20 to 24 hours
[8] = test system: KLEBSIELLA PNEUMONIAE ATCC 8045; assay: In vitro antibacterial activity, agar dilution MIC
STAPHYLOCOCCUS AUREUS 45 = assay: In vitro antibacterial activity, agar dilution MIC
ESCHERICHIA COLI H560 = assay: In vitro antibacterial activity, agar dilution MIC; settings: 24 h
[9] = test system: PSEUDOMONAS AERUGINOSA K799/61; assay: In vitro antibacterial activity, agar dilution MIC; settings: P. aeruginosa K799/61, BHI agar, 35-37° C., 20 to 24 hours, read-out: MIC
Method: (§1) Representative compounds of the present invention were assayed in vitro for antibacterial activity as follows: Twelve petri dishes containing successive aqueous dilutions of the test compound mixed with 10 ml of sterilized Brain Heart Infusion (BHI) agar (Difco 0418-01-5) were prepared. Each plate was inoculated with 1:100 (or 1:10 for slow-growing strains, such as Micrococcus and Streptococcus) dilutions of up to 32 different microorganisms, using a Steers replicator block. The inoculated plates were incubated at 35°-37° C. for 20 to 24 hours. In addition, a control plate, using BHI agar containing no test compound, was prepared and incubated at the beginning and end of each test.
(§2) An additional plate containing a compound having known susceptibility patterns for the organisms being tested and belonging to the same antibiotic class as the test compound was also prepared and incubated as a further control, as well as to provide test-to-test comparability. Erythromycin A was used for this purpose.
(§3) After incubation, each disk was read. The minimum inhibitory concentration (MIC) was defined as the lowest concentration of drug yielding no growth, a slight haze, or sparsely isolated colonies on the inoculum spot as compared to the growth control. The results of this assay, shown below in Tables 1 and 2, support the conclusion that the compounds of the invention are effective antibacterial agents.

EN[…] ATCC 8043 = assay: In vitro antibacterial activity, agar dilution MIC; settings: Enterococcus faecium, ATCC8043, 24 h
Method: as §1, §2, §3

M[…] ATCC 4698 = assay: In vitro antibacterial activity, agar dilution MIC; settings: Micrococcus luteus, ATCC4698, 24 h
Method: as §1, §2, §3

M[…] ATCC 9341 = assay: In vitro antibacterial activity, agar dilution MIC; settings: Micrococcus luteus, ATCC9341, 24 h
Method: as §1, §2, §3

[10] = test system: STAPHYLOCOCCUS AUREUS 642A; assay: In vitro antibacterial activity, agar dilution MIC
PSEUDOMONAS CEPACIA 296I = assay: In vitro antibacterial activity, agar dilution MIC; settings: Burkholderia cepacia; P. cepacia 296I; BHI agar, 35-37° C., 20 to 24 hours; read-out: MIC
[11] = test system: STAPHYLOCOCCUS AUREUS NCTC 10649; assay: In vitro antibacterial activity, agar dilution MIC
[12] = test system: STAPHYLOCOCCUS AUREUS ATCC 6538P; assay: In vitro antibacterial activity, agar dilution MIC; settings: ATCC6538P, 24 h
[13] = test system: PSEUDOMONAS AERUGINOSA BMH10; assay: In vitro antibacterial activity, agar dilution MIC; settings: 24 h
[14] = test system: STREPTOCOCCUS BOVIS A5169; assay: In vitro antibacterial activity, agar dilution MIC; settings: 24 h
[15] = test system: PSEUDOMONAS AERUGINOSA K799/WT; assay: In vitro antibacterial activity, agar dilution MIC; settings: P. aeruginosa K799/WT, BHI agar, 35-37° C., 20 to 24 hours
[16] = test system: STREPTOCOCCUS PYOGENES 930 CONST; assay: In vitro antibacterial activity, agar dilution MIC; settings: S. pyogenes 930 CONST, BHI agar, 35-37° C., 20 to 24 hours, read-out: MIC
[17] = test system: PROVIDENCIA STUARTII CMX 640; assay: microbe, parasite or virus in culture; settings: P. stuartii CMX 640, BHI agar, 35-37° C., 20 to 24 hours
[18] = test system: STAPHYLOCOCCUS AUREUS CMX 553; assay: In vitro antibacterial activity, agar dilution MIC; settings: 24 h
STR[…] EES61 = assay: In vitro antibacterial activity, agar dilution MIC; settings: Streptococcus pyogenes, 24 h
Method: as §1, §2
(§4) After incubation, each disk was read. The minimum inhibitory concentration (MIC) was defined as the lowest concentration of drug yielding no growth, a slight haze, or sparsely isolated colonies on the inoculum spot as compared to the growth control.

STR[…] 508 = assay: In vitro antibacterial activity, agar dilution MIC; settings: Streptococcus agalactiae, 24 h
Method: as §1, §2, §4

CC[C@H]1OC(=O)[C@H](C)[C@@H](O[C@H]2C[C@@](C)(OC)[C@@H](O)[C@H](C)O2)[C@H](C)[C@@H](O[C@@H]2O[C@H](C)C[C@H](N(C)C)[C@H]2O)[C@](C)(O)C[C@@H](C)[C@@H](N(C)C)[C@H](C)[C@@H](O)[C@@]12CO2 [Compound 8, (9R)-9-deoxo-9-(N,N-dimethylamino)-12,21-epoxyerythromycin A]
MIC [1]: 50 µg/mL (≈ 65.7 µM) | MIC (ESCHERICHIA COLI DC-2): 50 µg/mL (≈ 65.7 µM) | MIC (ESCHERICHIA COLI SS; E. coli SS, BHI agar, 35-37° C., 20 to 24 hours, read-out: MIC): 0.39 µg/mL (≈ 0.512 µM) | MIC [2]: > 100 µg/mL | MIC [3]: > 100 µg/mL | MIC (ESCHERICHIA COLI KNK 437): 50 µg/mL (≈ 65.7 µM) | MIC [4]: 0.39 µg/mL (≈ 0.512 µM) | MIC [5]: 6.2 µg/mL (≈ 8.15 µM) | MIC [6]: 12.5 µg/mL (≈ 16.4 µM) | MIC (ESCHERICHIA COLI JUHL): 100 µg/mL (≈ 131 µM) | MIC [7]: > 100 µg/mL | MIC ([8]; ATCC8045, K. pneumoniae ATCC 8045, BHI agar, 35-37° C., 20 to 24 hours, read-out: MIC): 100 µg/mL (≈ 131 µM) | MIC (STAPHYLOCOCCUS AUREUS 45; S. aureus 45, BHI agar, 35-37° C., 20 to 24 hours, read-out: MIC): 0.78 µg/mL (≈ 1.02 µM) | MIC (ESCHERICHIA COLI H560): 25 µg/mL (≈ 32.9 µM) | MIC [9]: 12.5 µg/mL (≈ 16.4 µM) | MIC (EN[…] ATCC 8043): 0.02 µg/mL (≈ 0.0263 µM) | MIC (M[…] ATCC 4698): 0.1 µg/mL (≈ 0.131 µM) | MIC (M[…] ATCC 9341): 0.1 µg/mL (≈ 0.131 µM) | MIC ([10]; S. aureus 642A, BHI agar, 35-37° C., 20 to 24 hours, read-out: MIC): 1.56 µg/mL (≈ 2.05 µM) | MIC (PSEUDOMONAS CEPACIA 296I): > 100 µg/mL | MIC ([11]; NCTC10649, S. aureus NCTC 10649, BHI agar, 35-37° C., 20 to 24 hours, read-out: MIC): 0.78 µg/mL (≈ 1.02 µM) | MIC [12]: 0.78 µg/mL (≈ 1.02 µM) | MIC [13]: > 100 µg/mL | MIC [14]: 0.02 µg/mL (≈ 0.0263 µM) | MIC [15]: > 100 µg/mL | MIC [16]: > 100 µg/mL | MIC [17]: > 100 µg/mL

CC[C@H]1OC(=O)[C@H](C)[C@@H](O[C@H]2C[C@@](C)(OC)[C@@H](O)[C@H](C)O2)[C@H](C)[C@@H](O[C@@H]2O[C@H](C)C[C@H](N(C)C)[C@H]2O)[C@](C)(O)C[C@@H](C)[C@@H](N)[C@H](C)[C@@H](O)[C@@]1(O)CNCc1ccccc1 [Compound 14, (9R)-9-amino-21-benzylamino-9-deoxo-erythromycin A]
MIC [1]: > 100 µg/mL | MIC (ESCHERICHIA COLI DC-2): 100 µg/mL (≈ 119 µM) | MIC (ESCHERICHIA COLI SS; 24 h): 0.78 µg/mL (≈ 0.928 µM) | MIC [2]: > 100 µg/mL | MIC [3]: > 100 µg/mL | MIC (ESCHERICHIA COLI KNK 437): 100 µg/mL (≈ 119 µM) | MIC [4]: 1.56 µg/mL (≈ 1.86 µM) | MIC [5]: 3.1 µg/mL (≈ 3.69 µM) | MIC (ESCHERICHIA COLI JUHL): 100 µg/mL (≈ 119 µM) | MIC [7]: > 100 µg/mL | MIC ([8]; ATCC8045, 24 h): 50 µg/mL (≈ 59.5 µM) | MIC (STAPHYLOCOCCUS AUREUS 45; 24 h): 6.2 µg/mL (≈ 7.38 µM) | MIC (ESCHERICHIA COLI H560): 25 µg/mL (≈ 29.8 µM) | MIC [9]: 25 µg/mL (≈ 29.8 µM) | MIC (EN[…] ATCC 8043): 3.1 µg/mL (≈ 3.69 µM) | MIC (M[…] ATCC 4698): 3.1 µg/mL (≈ 3.69 µM) | MIC (M[…] ATCC 9341): 0.78 µg/mL (≈ 0.928 µM) | MIC ([10]; 24 h): 6.2 µg/mL (≈ 7.38 µM) | MIC [18]: 6.2 µg/mL (≈ 7.38 µM) | MIC (PSEUDOMONAS CEPACIA 296I): > 100 µg/mL | MIC ([11]; NCTC10649, 24 h): 3.1 µg/mL (≈ 3.69 µM) | MIC (STR[…] EES61): 0.2 µg/mL (≈ 0.238 µM) | MIC (STR[…] 508): 0.39 µg/mL (≈ 0.464 µM) | MIC [12]: 3.1 µg/mL (≈ 3.69 µM) | MIC [13]: 50 µg/mL (≈ 59.5 µM) | MIC [14]: 0.2 µg/mL (≈ 0.238 µM) | MIC [15]: > 100 µg/mL | MIC [16]: > 100 µg/mL | MIC [17]: > 100 µg/mL
